Assay results reported in US12168067B2, “Photostable antioxidant cosmetic composition” (priority 2019, dated 2024).

Experiment: Solution-based assay: residual trans-polydatin after irradiation with 1 molar equivalent of isomerization stabilizer
Assay type: physicochemical
Details: for Average of Relative Residual Trans-polydatin (percent): 0.5% by weight trans-polydatin in solution + 1 molar equivalent stabilizer, irradiated at 365 nm, 5 J total energy, HPLC-UV, per stabilizer; for Photo-stabilization of trans-polydatin in solution (in words): 365 nm, 5 J, comment on Table 2
Experimental: The stabilization of polydatin was evaluated in a solution-based assay where residual trans-polydatin percentage was determined after exposure to radiation. According to the experimental method, trans-polydatin was dissolved in an appropriate solvent at 0.5% by weight. To this solution was added 1 molar equivalent of an isomerization stabilizer. An aliquot of the resulting solution was diluted with methanol and the amount of trans-polydatin was quantified by HPLC-UV. The solution containing trans-polydatin and the additive was irradiated under controlled conditions at 365 nm using 5 J of total energy. An aliquot of the irradiated solution was diluted in methanol and the amount of trans-polydatin was quantified by HPLC-UV. The residual trans-polydatin was calculated by dividing the quantified amount of trans-polydatin obtained from the irradiated solution by the amount of trans-polydatin obtained from the non-irradiated solution and is expressed as a percentage. The relative residual is indicated for each photoisomerization stabilizer and is calculated as an average relative residual for classes of photoisomerization stabilizers where indicated.

Compound	Average of Relative Residual Trans-polydatin (percent) [%]	Photo-stabilization of trans-polydatin in solution (in words)
COc1ccc([C@@H]2CC(=O)c3c(O)cc(O[C@@H]4O[C@H](CO[C@@H]5O[C@@H](C)[C@H](O)[C@@H](O)[C@H]5O)[C@@H](O)[C@H](O)[C@H]4O)cc3O2)cc1O [Hesperidine]	41.6	–
COc1ccc([C@@H]2CC(=O)c3c(O)cc(O)cc3O2)cc1O [Hesperetin]	30.6	–
O=C1O[C@H]([C@@H](O)CO)C(O)=C1O[C@H]1O[C@H](CO)[C@@H](O)[C@H](O)[C@H]1O [Vitamin CG]	6.9	ineffective
Vitamin E	0.6	ineffective
O=c1cc(-c2ccc(O)cc2)oc2cc(O)cc(O)c12 [Apigenin]	66.7	–
O=c1cc(-c2ccc(O)c(O)c2)oc2cc(O)cc(O)c12 [Luteolin]	63.3	–
COc1cc(/C=C/C(=O)O)ccc1O [Ferulic acid]	35.5	–
O=c1cc(-c2ccccc2)oc2cc(O)c(O)c(O)c12 [Baicalein]	42.9	–
O=C(O)/C=C/c1ccc(O)cc1 [p-coumaric acid]	38.6	–
Cc1cc(C(C)(C)C)c(O)c(C(C)(C)C)c1 [BHT, tert-butylhydroxytoluene]	−3.1	ineffective
Glycosyl Hesperidin	31.0	–
O=C(O)C(O)c1ccccc1 (stereo not drawn) [Mandelic acid]	−0.9	ineffective
O=C(O)[C@H]1O[C@@H](Oc2cc3oc(-c4ccccc4)cc(=O)c3c(O)c2O)[C@H](O)[C@@H](O)[C@@H]1O [Baicalin]	32.3	–
O=C(O[C@@H]1Cc2c(O)cc(O)cc2O[C@@H]1c1cc(O)c(O)c(O)c1)c1cc(O)c(O)c(O)c1 [Epigallocatechine gallate]	0.4	–
O=C1c2c(O)cc(O)cc2O[C@H](c2ccc(O)c(O)c2)[C@H]1O [Taxifolin]	38.3	–
O=c1c(O)c(-c2ccc(O)c(O)c2)oc2cc(O)cc(O)c12 [Quercetin]	24.8	–
NC(=O)c1cccnc1 [Niacinamide]	−0.3	ineffective
O=C(O)c1cc(O)c(O)c(O)c1 [Gallic acid]	−0.3	ineffective
